The experiment relates to épidermes reconstruits d'Episkin. As to the kind of experiment: Maturation of the cornified envelope: count of mature envelopes (involucrin immunolabelling / Nile Red) after 7 days of treatment of reconstructed epidermis. It counts as cell-based. The following applies: 168 h; C-glycoside 2,5% (p/v) alone; 30µl at J7, J9, J10, J13; read-out J14; read-out: augmentation du taux d'enveloppes cornées matures par rapport au témoin eau (Moy). The source says: Les épidermes reconstruits d'Episkin ont été utilisés pour évaluer l'impact de molécules sur la maturation de l'enveloppe cornée.
Les Episkin J7 ont été cultivés avec le carraghénane et les associations carraghénane + C-BETA-D-XYLOPYRANOSIDE-2-HYDROXY-PROPANE (HYDROXYPROPYL TETRAHYDROPYRANTRIOL) pendant 7 jours. Après isolement du stratum, les enveloppes cornées sont extraites.
Trois types d'enveloppes cornées, matures, intermédiaires et immatures sont identifiés et comptées par un logiciel d'analyse d'image développé spécifiquement. […]
Les lames immunomarquées sont visionnées sous microscope (DM6000B Leica) suivant 2 modes d'observation : contraste de phase et fluorescence.
Le contraste de phase fournit une image en niveau de gris nous permettant de visualiser l'ensemble des cellules présentes dans le champ. Le mode fluorescence (jeu de filtercube) est utilisé pour visualiser les fluorochromes fixées à l'échantillon : • Le Nile Red est une sonde fluorescente permettant de localiser les zones hydrophobes plus particulièrement les lipides. […]

These results are taken from patent publication EP2753300B1, “COMBINATION OF CARRAGEENAN AND C-GLYCOSIDE AND USES THEREOF” (L'Oréal, priority 2011, dated 2013).

`CC(O)C[C@@H]1OC[C@@H](O)[C@H](O)[C@H]1O` (stereo partly drawn) [C-glycoside, C-β-D-xylopyranoside-2-hydroxy-propane]: the activation at 25000 µg/mL worked out at 22%.
